Experimental data reported in patent publication US4241069A, “3-Methylene flavanones and 3-methylene chromanones” (Miles Laboratories, Inc., priority 1979, dated 1980).
≈ marks a conversion by molar mass, not a printed value.

Key:
[1] = test system: Candida albicans ATCC 10231; test: MIC, agar incorporation method; type: cell-based; settings: ATCC10231, C. albicans ATCC 10231, 32° C., 24 hours, read-out: Minimal Inhibitory Concentration
Protocol: (§1) The compounds of the present invention were tested for their ability to inhibit the growth of microorganisms by in vitro tests. Generally the in vitro tests involve growing representative microorganisms under conditions favorable to such growth and measuring the effectiveness of one or more compounds in inhibiting or destroying the growth of the microorganisms. The microorganisms used include representative bacteria, fungi and yeasts.
(§2) A representative selection of the test microorganisms were cultured in a nutrient broth, such as, for example, Eugon, commercially available from Difco Laboratories, Detroit, Michigan. Bacteria and Candida species were cultured for 24 hours at 32°-37° C. and fungi were cultured for approximately one week at 32° C. Inocula were prepared by suspending the growth or spores from a slant culture in sufficient sterile normal (0.9 percent) saline or Eugon broth, to yield cell or spore concentrations of 1,000,000 cells per milliliter. Anaerobic bacteria were cultured for 48-72 hours at 32°-37° C. in a thioglycollate containing medium, for example, Fluid Thioglycollate medium or NIH thioglycollate broth, commercially available from Difco Laboratories.
(§3) The compounds of the present invention were tested for activity against bacteria, yeasts and fungi by the agar incorporation method described below. MA 1347, 3-(dimethylaminomethyl)flavanone (disclosed in U.S. Pat. No. 3,753,985) was used as a comparative standard along with controls for each solvent system used.
(§4) A series of agar plates containing two-fold dilutions of each compound to be tested, ranging in concentration from 100 to 3.1 mcg/ml of agar medium was prepared. Aliquots of each concentration (100, 50, 25, 12.5, 6.2, and 3.1) prepared in N,N-dimethylformamide or 50 percent aqueous DMF were added to liquid Eugon agar at 48° C. (one part test solution to 100 parts agar). In some cases, tests with further dilutions to 0.125 mcg/ml were conducted. The agar medium, containing the 3-methylene flavanone or chromanone compound to be tested, was then dispensed into petri dishes and allowed to solidify. The solidified plates were kept overnight at room temperatures to dry the surface of the agar.
(§5) The agar plates were then inoculated with a drop of the standardized cell or spore suspension. Inoculated plates were incubated at 32° C. The inhibition end-point or minimum inhibitory concentration (MIC) shown in Table D represent the lowest concentration of test compound which inhibited the growth of the microorganism. Visual determination of growth inhibition was used. Bacteria and yeast end-points were determined after 24 hours incubation; molds, dermatophytes and anaerobes after 48-72 hours incubation. MIC values shown as ranges represent the extremes found in repeat assays. Virtually all such values were written plus or minus one dilution, the accepted variation of a two-fold dilution assay.

C. tropicalis NRRL Y1410 = test: MIC, agar incorporation method; type: cell-based; settings: Candida tropicalis, NRRLY1410; 32° C., 24 hours; read-out: Minimal Inhibitory Concentration
Protocol: as §1, §2, §3, §4, §5

C. guillermondii VM 42 = test: MIC, agar incorporation method; type: cell-based; settings: 32° C., 24 hours; read-out: Minimal Inhibitory Concentration
Protocol: as §1, §2, §3, §4, §5

[2] = test system: Trichophyton mentagrophytes ATCC 4807; test: MIC, agar incorporation method; type: cell-based; settings: ATCC4807, 32° C., 48-72 hours, read-out: Minimal Inhibitory Concentration
Protocol: as §1, §2, §3, §4, §5

[3] = test system: Streptococcus faecalis ATCC 10541; test: MIC, agar incorporation method; type: cell-based; settings: Enterococcus faecalis, ATCC10541; 32° C., 24 hours; read-out: Minimal Inhibitory Concentration
Protocol: as §1, §2, §3, §4, §5

T. mentagrophytes TM-2 = test: MIC, agar incorporation method; type: cell-based; settings: Trichophyton mentagrophytes, TM2, 32° C., 48-72 hours, read-out: Minimal Inhibitory Concentration
Protocol: as §1, §2, §3, §4, §5

[4] = test system: Microsporum gypseum ATCC 14683; test: MIC, agar incorporation method; type: cell-based; settings: Nannizzia gypsea, ATCC14683, 32° C., 48-72 hours; read-out: Minimal Inhibitory Concentration
Protocol: as §1, §2, §3, §4, §5

A. fumigatus NRRL 163 = test: MIC, agar incorporation method; type: cell-based; settings: Aspergillus fumigatus, NRRL163, NRRL 163; 32° C., 48-72 hours; read-out: Minimal Inhibitory Concentration
Protocol: as §1, §2, §3, §4, §5

[5] = test system: Sarcina subflava ATCC 7468; test: MIC, agar incorporation method; type: cell-based; settings: ATCC7468, 32° C., 24 hours, read-out: Minimal Inhibitory Concentration
Protocol: as §1, §2, §3, §4, §5

C. albicans NRRL Y-477 = test: MIC, agar incorporation method; type: cell-based; settings: Candida albicans, NRRLY477, 32° C., 24 hours, read-out: Minimal Inhibitory Concentration
Protocol: as §1, §2, §3, §4, §5

C. krusei VM 29B = test: MIC, agar incorporation method; type: cell-based; settings: Pichia kudriavzevii, VM29B; 32° C., 24 hours; read-out: Minimal Inhibitory Concentration
Protocol: as §1, §2, §3, §4, §5

T. tonsurans ATCC 10217 = test: MIC, agar incorporation method; type: cell-based; settings: Trichophyton tonsurans, ATCC10217; 32° C., 48-72 hours; read-out: Minimal Inhibitory Concentration
Protocol: as §1, §2, §3, §4, §5

[6] = test system: Staphylococcus aureus ATCC 6538; test: MIC, agar incorporation method; type: cell-based; settings: Staphylococcus aureus, ATCC6538; S. aureus ATCC 6538; 32° C., 24 hours; read-out: Minimal Inhibitory Concentration
Protocol: as §1, §2, §3, §4, §5

[7] = test system: Aspergillus niger ATCC 16404; test: MIC, agar incorporation method; type: cell-based; settings: ATCC16404, 32° C., 48-72 hours, read-out: Minimal Inhibitory Concentration
Protocol: as §1, §2, §3, §4, §5

[8] = test system: Escherichia coli ATCC 8739; test: MIC, agar incorporation method; type: cell-based; settings: ATCC8739, 32° C., 24 hours, read-out: Minimal Inhibitory Concentration
Protocol: as §1, §2, §3, §4, §5

T. mentagrophytes CDC = test: MIC, agar incorporation method; type: cell-based; settings: Trichophyton mentagrophytes, 32° C., 48-72 hours, read-out: Minimal Inhibitory Concentration
Protocol: as §1, §2, §3, §4, §5

[9] = test system: Pseudomonas aeruginosa ATCC 14502; test: MIC, agar incorporation method; type: cell-based; settings: ATCC14502, 32° C., 24 hours, read-out: Minimal Inhibitory Concentration
Protocol: as §1, §2, §3, §4, §5

[10] = test system: Propionobacterium acnes ATCC 6919; test: MIC, agar incorporation method, anaerobic; type: cell-based; settings: 48 hours at 35° C., GasPak Anaerobic Jar, read-out: Minimal Inhibitory Concentration
Protocol: as §1, §2, §3, §4, §5
(§6) *Anaerobic: 48 hours incubation at 35° C. GasPak Anaerobic Jar

[11] = test system: Bacteriodides fragilis ATCC 8482; test: MIC, agar incorporation method, anaerobic; type: cell-based; settings: 48 hours at 35° C., GasPak Anaerobic Jar, read-out: Minimal Inhibitory Concentration
Protocol: as §1, §2, §3, §4, §5, §6

S. aureus NRRL B2747 [12] = test: MIC, agar incorporation method, anaerobic; type: cell-based; settings: Staphylococcus aureus, NRRLB2747, 48 hours at 35° C., GasPak Anaerobic Jar, read-out: Minimal Inhibitory Concentration
Protocol: as §1, §2, §3, §4, §5, §6

[13] = test system: Clostridium sporogenes ATCC 11437; test: MIC, agar incorporation method, anaerobic; type: cell-based; settings: ATCC11437, 48 hours at 35° C., GasPak Anaerobic Jar, read-out: Minimal Inhibitory Concentration
Protocol: as §1, §2, §3, §4, §5, §6

S. aureus NRRL B2747 [14] = test: MIC, agar incorporation method; type: cell-based, Staphylococcus aureus; settings: Staphylococcus aureus, NRRLB2747, 32° C., 24 hours, read-out: Minimal Inhibitory Concentration
Protocol: as §1, §2, §3, §4, §5

A. fumigatus NRRL 165 = test: MIC, agar incorporation method; type: cell-based; settings: Aspergillus fumigatus, NRRL165, 32° C., 48-72 hours, read-out: Minimal Inhibitory Concentration
Protocol: as §1, §2, §3, §4, §5

T. rubrum ATCC 10218 = test: MIC, agar incorporation method; type: cell-based; settings: Trichophyton rubrum, ATCC10218; 32° C., 48-72 hours; read-out: Minimal Inhibitory Concentration
Protocol: as §1, §2, §3, §4, §5

C=C1C(=O)c2ccccc2OC1(c1ccccc1)c1cccs1 (stereo not shown) [Ex. 21, 3-Methylene-2-(2-thienyl) flavanone]
MIC [1]: > 100 mg/L
MIC (C. tropicalis NRRL Y1410): > 100 mg/L
MIC (C. guillermondii VM 42): > 100 mg/L
MIC [2]: 12.5 mg/L (≈ 39.3 µM)
MIC [3]: 1 mg/L (≈ 3.14 µM)
MIC (T. mentagrophytes TM-2): 12.5 mg/L (≈ 39.3 µM)
MIC [4]: 6.2 mg/L (≈ 19.5 µM)
MIC (A. fumigatus NRRL 163): 100 mg/L (≈ 314 µM)
MIC [5]: 1.56 mg/L (≈ 4.9 µM)
MIC (C. albicans NRRL Y-477): > 100 mg/L
MIC (C. krusei VM 29B): > 100 mg/L
MIC (T. tonsurans ATCC 10217): 6.2 mg/L (≈ 19.5 µM)
MIC [6]: 0.5 mg/L (≈ 1.57 µM)
MIC [7]: > 100 mg/L
MIC [8]: > 100 mg/L
MIC (T. mentagrophytes CDC): 12.5 mg/L (≈ 39.3 µM)
MIC [9]: > 100 mg/L
MIC [10]: 1 mg/L (≈ 3.14 µM)
MIC [11]: 0.25 mg/L (≈ 0.785 µM)
MIC (S. aureus NRRL B2747 [12]): 1.56 mg/L (≈ 4.9 µM)
MIC [13]: 0.5 mg/L (≈ 1.57 µM)
MIC (S. aureus NRRL B2747 [14]): 0.5 mg/L (≈ 1.57 µM)

C=C1C(=O)c2cc(Br)ccc2OC1c1ccc(Br)cc1 (stereo not shown) [Ex. 17, 4',6-dibromo-3-methylene flavanone]
MIC (A. fumigatus NRRL 165): > 100 mg/L
MIC [1]: 100 mg/L (≈ 254 µM)
MIC (C. tropicalis NRRL Y1410): > 100 mg/L
MIC (C. guillermondii VM 42): > 100 mg/L
MIC [2]: 12.5 mg/L (≈ 31.7 µM)
MIC [3]: > 100 mg/L
MIC (T. mentagrophytes TM-2): 25 mg/L (≈ 63.4 µM)
MIC (T. rubrum ATCC 10218): 25 mg/L (≈ 63.4 µM)
MIC [4]: 50 mg/L (≈ 127 µM)
MIC (A. fumigatus NRRL 163): > 100 mg/L
MIC (C. albicans NRRL Y-477): 100 mg/L (≈ 254 µM)
MIC (C. krusei VM 29B): 100 mg/L (≈ 254 µM)
MIC [6]: 6.2 mg/L (≈ 15.7 µM)
MIC [7]: > 100 mg/L
MIC [8]: > 100 mg/L
MIC (T. mentagrophytes CDC): 50 mg/L (≈ 127 µM)
MIC [9]: > 100 mg/L
MIC (S. aureus NRRL B2747 [14]): 12.5 mg/L (≈ 31.7 µM)

C=C1C(=O)c2ccccc2OC1c1ccc(N(C)C)cc1 (stereo not shown) [Ex. 11, 4'-dimethylamino-3-methylene flavanone]
MIC (A. fumigatus NRRL 165): > 100 mg/L
MIC [1]: > 100 mg/L
MIC (C. tropicalis NRRL Y1410): > 100 mg/L
MIC (C. guillermondii VM 42): > 100 mg/L
MIC [2]: 25 mg/L (≈ 89.5 µM)
MIC [3]: > 100 mg/L
MIC (T. mentagrophytes TM-2): 25 mg/L (≈ 89.5 µM)
MIC (T. rubrum ATCC 10218): 12.5 mg/L (≈ 44.7 µM)
MIC [4]: 25 mg/L (≈ 89.5 µM)
MIC (C. albicans NRRL Y-477): > 100 mg/L
MIC (C. krusei VM 29B): 100 mg/L (≈ 358 µM)
MIC [6]: 50 mg/L (≈ 179 µM)
MIC [7]: > 100 mg/L
MIC [8]: > 100 mg/L
MIC (T. mentagrophytes CDC): 25 mg/L (≈ 89.5 µM)
MIC [9]: > 100 mg/L
MIC (S. aureus NRRL B2747 [14]): 50 mg/L (≈ 179 µM)

C=C1C(=O)c2ccccc2OC1(c1ccccc1)c1ccncc1 (stereo not shown) [Ex. 22, 3-Methylene-2-(4-pyridyl) flavanone]
MIC [1]: 100 mg/L (≈ 319 µM)
MIC (C. tropicalis NRRL Y1410): > 100 mg/L
MIC (C. guillermondii VM 42): > 100 mg/L
MIC [2]: 12.5 mg/L (≈ 39.9 µM)
MIC [3]: 3.1 mg/L (≈ 9.89 µM)
MIC (T. mentagrophytes TM-2): 12.5 mg/L (≈ 39.9 µM)
MIC [4]: 12.5 mg/L (≈ 39.9 µM)
MIC (A. fumigatus NRRL 163): 25 mg/L (≈ 79.8 µM)
MIC [5]: 3.1 mg/L (≈ 9.89 µM)
MIC (C. albicans NRRL Y-477): 100 mg/L (≈ 319 µM)
MIC (C. krusei VM 29B): 100 mg/L (≈ 319 µM)
MIC (T. tonsurans ATCC 10217): 6.2 mg/L (≈ 19.8 µM)
MIC [6]: 0.78 mg/L (≈ 2.49 µM)
MIC [7]: > 100 mg/L
MIC [8]: > 100 mg/L
MIC (T. mentagrophytes CDC): 25 mg/L (≈ 79.8 µM)
MIC [9]: > 100 mg/L
MIC [10]: 1 mg/L (≈ 3.19 µM)
MIC [11]: 0.25 mg/L (≈ 0.798 µM)
MIC (S. aureus NRRL B2747 [12]): 1 mg/L (≈ 3.19 µM)
MIC [13]: 0.5 mg/L (≈ 1.6 µM)
MIC (S. aureus NRRL B2747 [14]): 0.78 mg/L (≈ 2.49 µM)
